Data from the NIST ThermoML archive (doi:10.1021/je700670k).

Conditions: Liquid, Vibrating tube method

CCn1cc[n+](C)c1.O=S(=O)([O-])C(F)(F)F [1-ethyl-3-methylimidazolium trifluoromethanesulfonate]
mass density [kg/m3]
Conditions | 293.15 K | 303.15 K | 313.15 K | 323.15 K | 333.15 K | 353.15 K | 393.15 K
100 kPa | 1379.6 | 1370.2 | 1361.1 | 1352 | 1342.8 | 1325.3 | 1291.1
1000 kPa | 1380 | 1370.7 | 1361.6 | 1352.5 | 1343.3 | 1325.9 | 1291.7
2000 kPa | 1380.6 | 1371.5 | 1362.2 | 1353.2 | 1344 | 1326.6 | 1292.4
3000 kPa | 1381.1 | 1372.1 | 1362.9 | 1353.8 | 1344.6 | 1327.2 | 1293.2
4000 kPa | 1381.8 | 1372.7 | 1363.5 | 1354.4 | 1345.3 | 1327.9 | 1293.9
5000 kPa | 1382.5 | 1373.2 | 1364.1 | 1355.1 | 1346 | 1328.6 | 1294.5
7500 kPa | 1383.9 | 1374.6 | 1365.7 | 1356.7 | 1347.6 | 1330.3 | 1296.4
10000 kPa | 1385.4 | 1376.1 | 1367.3 | 1358.2 | 1349.2 | 1332 | 1298.1
15000 kPa | 1388.2 | 1379 | 1370.2 | 1361.2 | 1352.3 | 1335.3 | 1302
20000 kPa | 1391 | 1381.9 | 1373.1 | 1364.2 | 1355.4 | 1338.5 | 1305.2
25000 kPa | 1393.7 | 1384.7 | 1376 | 1367.2 | 1358.4 | 1341.9 | 1308.7
30000 kPa | 1396.4 | 1387.5 | 1378.8 | 1370.1 | 1361.4 | 1344.8 | 1312
35000 kPa | 1399.1 | 1390.2 | 1381.6 | 1372.9 | 1364.3 | 1347.8 | 1315.3
